From patent publication US12011447B2, “Pharmaceutical composition for treating thyroid cancer comprising tyrosine kinase activity inhibitor as active ingredient” (Kyungpook National University Industry-Academic Cooperation …, priority 2017, dated 2024) come the findings set out here.

For assay [1], the system named is NIS promoter. Kind of assay: NIS promoter activity by F-luc2 bioluminescence (BLI) in dual-reporter cells. In kind it is cell-based, human. As to conditions: 8505C-PNIS-PCMV cells. An excerpt: A pNIS-FL2-TurboFP635-pCMV-Rluc recombinant vector expressing reporter genes driven by dual promoters was constructed by Cosmo Genetech, Ltd. (Republic of Korea) using a pNIS-FL2-TurboFP635 vector and a pcDNA3.1/Hygro(+) vector. Specifically, in order to screen a substance that increases the activity of NIS promoter, Firefly-luciferase2(F-luc2) and TurboFP635 were included downstream (clockwise) of the NIS promoter. In order count cells, CMV promoter and Renilla-luciferase (R-luc) were included upstream (counterclockwise) of the NIS promoter. The pNIS-FL2-TurboFP635 vector was provided from Dr. Abhijit De (ACTREC, India), and the pcDNA3.1/Hygro(+) vector was purchased from invitrogen (USA).
The 8505C cell line was transfected with the pNIS-FL2-TurboFP635-pCMV-Rluc recombinant vector using the Fu-GENE HD solution according to the protocols of the manufacturer (Promega). The ratio of the recombinant vector to the Fu-GENE HD solution was 1:4, and the transfected cells were selected using 600 μg/ml of geneticin (AG Scientific). The selected cell line that stably expresses the dual-reporter gene system is referred to herein as ‘8505C-PNIS-PCMV’ cell line.
To examine transcriptional regulation of the NIS (sodium iodide symporter) promoter, the 8505C-PNIS-PCMV cells were treated with a tyrosine kinase inhibitor (hereinafter referred to as TKI) library for 24 hours. Next, D-luciferin (150 μg/ml) was added to the cells, and the activity of NIS promoter was measured by IVIS Lumina III (Perkin-Elmer, Wellesley, Mass., USA). To normalize the NIS promoter activity to cell number, 10 μg/ml of h-coelenterazine was added to the cells, and the activity of R-luc was measured. The activity of F-luc2 was divided by the R-luc activity. The TKI library used in the experiment was obtained from the Korea Chemical Bank (www.chembank.org) in the Korea Research Institute of Chemical Technology (Republic of Korea). Among the TKI candidates, TKI-0266 was selected, purchased from Chemdiv (USA), dissolved in DMSO, and then stored at −80° C.

The test system of assay [2] is anaplastic thyroid cancer xenograft (8505C-PNIS-PCMV). Kind of assay: In vivo 99mTc-pertechnetate gamma camera imaging. On the set-up: species or system Balb/c nude mice. To be noted: for 99mTc-pertechnetate uptake (tumor ROI normalized to background), FIG. 16B: 50 mg/kg. As to the method: (§1) Female Balb/c nude mice, 5.5-week old with an average weight of 18.9±0.37 g (mean±standard deviation [SD]), were purchased (Hamamatsu, Shizuoka, Japan). The mice were acclimated under specific pathogen-free conditions for one week before starting the experiment, and were maintained at a temperature of 20 to 25° C. and a relative humidity of 40 to 70%. To establish anaplastic thyroid cancer xenograft mouse models, 8505C-PNIS-PCMV s (5×10^6) were mixed with Matrigel (Corning) at a ratio of 1:1 and injected subcutaneously into the right flank region of each mouse.
When the injected 8505C-PNIS-PCMV cells grew to a size of about 50 mm^3, the mice were divided into two groups (n=5): a vehicle group; and a TKI-0266-administered group (50 mg/kg) injected with TKI-0266 by intraperitoneal injection every day for 5 days. To acquire gamma-camera images, 18.5 to 22.2 MBq ^99mTc-pertechnetate was administered to all the mice by intravenous injection. Whole body pinhole gamma camera imaging using a 2-mm pinhole collimator was acquired by infinia II gamma camera (GE Healthcare, USA). During the experiment, the mice were maintained under anesthesia with isoflurane (Forane, ChoongWae Co., Ltd., Korea). In order to estimate the count value, quantitative analysis was performed by quantifying the regions of interest (hereinafter referred to as ROI) in the mouse tumor region. Finally, in order to confirm the pertechnetate absorbed into the tumor, normalization was performed with a background activity ROI of the same size in the mouse head region.

Assay [3] deals with 8505C cells. The experiment in a line: In vitro 125I uptake assay. In kind it is cell-based, human. To be noted: anaplastic thyroid cancer cells, 24 hours treatment. As to the method:
8505C cells (1.25×10^5) were seeded and incubated in a 24-well plate for 24 hours, and then treated with TKI-0266 and further incubated for 24 hours. Thereafter, the medium was removed, and the cells were washed with bHBSS (Hank's balanced salt solution containing 0.5% BSA). The cells were incubated with 500 μl of bHBSS, 3.7 kBq carrier-free ^125I (Perkin-Elmer), and 10 μmol/L sodium iodide (specific activity of 740 MBq/mmol) at 37° C. for 30 minutes. Thereafter, the cells were washed twice with cold bHBSS and lysed by adding 500 μL of 2% SDS solution thereto. Radioactivity was measured using a Cobra II gamma-counter (Canberra Packard, Canada). The ^125I uptake values were normalized by comparing the amount of total protein determined by BCA protein assay kit.

The subject of assay [4] is anaplastic thyroid cancer xenograft (8505C-PNIS-PCMV). Kind of assay: In vivo bioluminescence imaging of F-luc2 (NIS expression). Further details: species or system Balb/c nude mice. As to conditions: 50 mg/kg every day for 5 days, D-luciferin. As for the experimental part: as §1
In order to examine whether the expression of NIS would be increased by TKI-0266, mice for use in the experiment were divided into two groups (n=5): the vehicle group; and the TKI-0266-administered group (50 mg/kg). 50 mg/kg of TKI-0266 was administered intravenously to the established anaplastic thyroid cancer xenograft mice every day for 5 days. On day 0 (before administration of TKI-0266) and day 6 after the start of administration of TKI-0266, to measure the R-luc signal with IVIS Lumina III, h-coelenterazine (15 μg/ml) was administered to the mice by intravenous injection. Next, D-luciferin (150 μg/ml) was administered intraperitoneally to the mice, and the bioluminescence image (hereinafter referred to as BLI) was acquired.

“Also recorded” adds a separate entry of the source.

Consider `Cc1cc2c(N(C)C3CCCCC3)ncnc2s1` [TKI-0266], for which the “concentration showing the highest F-luc2 activity” value in assay [1] worked out at 12.5 µM. Moreover, in assay [1] (24 hours, screening), the “BLI signal activity of F-luc2 (NIS promoter activity), increase” value was found to be 3.19 fold. Also, the “BLI signal of F-luc2 as treatment concentration increased” value in assay [1] (FIG. 7A) is reported as “increased”. Also, in assay [1] (FIG. 8), the “activity of NIS promoter (normalized by cell viability) as treatment concentration increased” value is given as “increased”. Also, in assay [2] (50 mg/kg every day for 5 days), the “99mTc-pertechnetate accumulation in the cancer cells (radioisotope uptake)” value is reported as “significantly increased; also recorded: the best”. Further, the “99mTc-pertechnetate uptake (tumor ROI normalized to background), FIG. 16B” value is reported as 0.852±0.210 in assay [2] (day 0) and 1.21±0.24 in assay [2] (day 6). Moreover, the “iodine uptake compared to vehicle group” value in assay [3] is recorded as “significantly increased”. Besides, in assay [4], the “activity of F-luc2 in vivo (NIS expression)” value is listed as “significantly increased”.
